Columns and labels:
[1] = test system: P388; experiment: Anticancer activity against mouse P388 cells; format: functional
[2] = test system: NCI-H460; experiment: Anticancer activity against human NCI-H460 cells; format: functional
[3] = test system: KM-20L2; experiment: Anticancer activity against human KM20L2 cells; format: functional
[4] = test system: DU-145; experiment: Anticancer activity against human DU145 cells; format: functional
[5] = test system: BXPC-3; experiment: Anticancer activity against human BxPC3 cells; format: functional
[6] = test system: MCF7; experiment: Anticancer activity against human MCF7 cells; format: functional
[7] = test system: SF-268; experiment: Anticancer activity against human SF268 cells; format: functional
[8] = Aqueous solubility of the compound in distilled water at 23 degC; format: physicochemical

SMILES	GI50 [1] [nM]	GI50 [2] [nM]	GI50 [3] [nM]	GI50 [4] [nM]	GI50 [5] [nM]	GI50 [6] [nM]	GI50 [7] [nM]	solubility [8] [mg/mL]
CC[C@H](C)[C@@H]([C@@H](CC(=O)N1CCC[C@H]1[C@H](OC)[C@@H](C)C(=O)NCCc1ccc(OP(=O)(O)O)cc1)OC)N(C)C(=O)[C@@H](NC(=O)[C@H](C(C)C)N(C)C)C(C)C [SODIUM AURISTATIN TP]	< 1.2	1.05	0.72	0.64	54.6	0.81	1.48	
C=C[C@H]1CN2CCC1C[C@H]2[C@H](O)c1ccnc2ccc(OC)cc12.CC[C@H](C)[C@@H]([C@@H](CC(=O)N1CCC[C@H]1[C@H](OC)[C@@H](C)C(=O)NCCc1ccc(OP(=O)(O)O)cc1)OC)N(C)C(=O)[C@@H](NC(=O)[C@H](C(C)C)N(C)C)C(C)C [Quinine Auristatin TP]								< 5
CC[C@H](C)[C@@H]([C@@H](CC(=O)N1CCC[C@H]1[C@H](OC)[C@@H](C)C(=O)Nc1ccc2ncccc2c1)OC)N(C)C(=O)[C@@H](NC(=O)[C@H](C(C)C)N(C)C)C(C)C		0.5	0.35	0.41	0.43	0.19	0.22	
CC[C@H](C)[C@@H]([C@@H](CC(=O)N1CCC[C@H]1[C@H](OC)[C@@H](C)C(=O)NCCc1ccc(OP(=O)(O)O)cc1)OC)N(C)C(=O)[C@@H](NC(=O)[C@H](C(C)C)N(C)C)C(C)C [POTASSIUM AURISTATIN TP]	8.7							
C1COCCN1.CC[C@H](C)[C@@H]([C@@H](CC(=O)N1CCC[C@H]1[C@H](OC)[C@@H](C)C(=O)NCCc1ccc(OP(=O)(O)O)cc1)OC)N(C)C(=O)[C@@H](NC(=O)[C@H](C(C)C)N(C)C)C(C)C [MORPHOLINE AURISTATIN TP]								> 72
CC[C@H](C)[C@@H]([C@@H](CC(=O)N1CCC[C@H]1[C@H](OC)[C@@H](C)C(=O)Nc1ccc2ccccc2n1)OC)N(C)C(=O)[C@@H](NC(=O)[C@H](C(C)C)N(C)C)C(C)C		22.1	10.6	31.8	40.1	6.35	40.1	
